Like-named read-outs stand apart in the source and are kept apart here. Where no end group is shown, it is not given here.
Columns and labels:
Format in all cases: cell-based
NMUR2 E105A = target: T1, NMUR2 E105A (Homo sapiens, UniProt Q9GZQ4, E105A); assay: IP-One assay, NMUR2 E105A; settings: mean ± S.E.M., three independent experiments (n=3), SEM, read-out: IP1 accumulation pEC50 ± S.E.M. (converted)
T1 construct: expressed in transfected cells; host or cells: AD293 cells
Protocol: (§1) IP-One production was measured using the IP-One HTRF kit (Cisbio)[62]. Briefly, AD293 cells (Agilent) were grown to a density of 400,000–500,000 cells per mL and then infected with separate plasmids at a suitable concentration. The culture was collected by centrifugation 24 h after incubation at 37 °C in 5% CO2 with a Stimulation Buffer. The cell suspension was then dispensed in a white 384-well plate at a volume of 7 μl per well before adding 7 μl of ligands. The mixture was incubated for 1 h at 37 °C. IP-One-d2 and anti-IP-One Cryptate dissolved in Lysis Buffer (3 μl each) were subsequently added and incubated for 15-30 min at room temperature before measurement. Intracellular IP-One measurement was carried with the IP-One HTRF kit and EnVision multi-plate reader (PerkinElmer) according to the manufacturer’s instructions. Data were normalized to the baseline response of the ligand.
(§2) The significance was determined with two-side, one-way ANOVA with Tukey’s test, and ^*P < 0.05 was considered statistically significant.

NMUR2 V310A = target: T2, NMUR2 V310A (Homo sapiens, UniProt Q9GZQ4, V310A); assay: IP-One assay, NMUR2 V310A; settings: mean ± S.E.M., three independent experiments (n=3), SEM, read-out: IP1 accumulation pEC50 ± S.E.M. (converted)
T2 construct: expressed in transfected cells; host or cells: AD293 cells
Protocol: as §1, §2

NMUR1 F334A = target: T3, NMUR1 F334A (Homo sapiens, UniProt Q9HB89, F334A); assay: IP-One assay, NMUR1 F334A; settings: mean ± S.E.M., three independent experiments (n=3), SEM, read-out: IP1 accumulation pEC50 ± S.E.M. (converted)
T3 construct: The full-length human NMUR1 and NMUR2 were modified; expressed in transfected cells; host or cells: AD293 cells
Protocol: as §1, §2

NMUR2 H309A = target: T4, NMUR2 H309A (Homo sapiens, UniProt Q9GZQ4, H309A); assay: IP-One assay, NMUR2 H309A; settings: mean ± S.E.M., three independent experiments (n=3), SEM, read-out: IP1 accumulation pEC50 ± S.E.M. (converted)
T4 construct: expressed in transfected cells; host or cells: AD293 cells
Protocol: as §1, §2

NMUR2 T205A = target: T5, NMUR2 T205A (Homo sapiens, UniProt Q9GZQ4, T205A); assay: IP-One assay, NMUR2 T205A; settings: mean ± S.E.M., three independent experiments (n=3), SEM, read-out: IP1 accumulation pEC50 ± S.E.M. (converted)
T5 construct: expressed in transfected cells; host or cells: AD293 cells
Protocol: as §1, §2

NMUR1 F313A = target: T6, NMUR1 F313A (Homo sapiens, UniProt Q9HB89, F313A); assay: IP-One assay, NMUR1 F313A; settings: mean ± S.E.M., three independent experiments (n=3), SEM, read-out: IP1 accumulation pEC50 ± S.E.M. (converted)
T6 construct: The full-length human NMUR1 and NMUR2 were modified; expressed in transfected cells; host or cells: AD293 cells
Protocol: as §1, §2

NMUR1 V339A = target: T7, NMUR1 V339A (Homo sapiens, UniProt Q9HB89, V339A); assay: IP-One assay, NMUR1 V339A; settings: mean ± S.E.M., three independent experiments (n=3), SEM, read-out: IP1 accumulation pEC50 ± S.E.M. (converted)
T7 construct: The full-length human NMUR1 and NMUR2 were modified; expressed in transfected cells; host or cells: AD293 cells
Protocol: as §1, §2

NMUR2 E102A = target: T8, NMUR2 E102A (Homo sapiens, UniProt Q9GZQ4, E102A); assay: IP-One assay, NMUR2 E102A; settings: mean ± S.E.M., three independent experiments (n=3), SEM, read-out: IP1 accumulation pEC50 ± S.E.M. (converted)
T8 construct: expressed in transfected cells; host or cells: AD293 cells
Protocol: as §1, §2

NMUR2 N109A = target: T9, NMUR2 N109A (Homo sapiens, UniProt Q9GZQ4, N109A); assay: IP-One assay, NMUR2 N109A; settings: mean ± S.E.M., three independent experiments (n=3), SEM, read-out: IP1 accumulation pEC50 ± S.E.M. (converted)
T9 construct: expressed in transfected cells; host or cells: AD293 cells
Protocol: as §1, §2

NMUR2 K122A = target: T10, NMUR2 K122A (Homo sapiens, UniProt Q9GZQ4, K122A); assay: IP-One assay, NMUR2 K122A; settings: mean ± S.E.M., three independent experiments (n=3), SEM, read-out: IP1 accumulation pEC50 ± S.E.M. (converted)
T10 construct: expressed in transfected cells; host or cells: AD293 cells
Protocol: as §1, §2

NMUR2 F316A = target: T11, NMUR2 F316A (Homo sapiens, UniProt Q9GZQ4, F316A); assay: IP-One assay, NMUR2 F316A; settings: mean ± S.E.M., three independent experiments (n=3), SEM, read-out: IP1 accumulation pEC50 ± S.E.M. (converted)
T11 construct: expressed in transfected cells; host or cells: AD293 cells (Agilent)
Protocol: as §1, §2

NMUR1 L59A = target: T12, NMUR1 L59A (Homo sapiens, UniProt Q9HB89, L59A); assay: IP-One assay, NMUR1 L59A; settings: mean ± S.E.M., three independent experiments (n=3), SEM, read-out: IP1 accumulation pEC50 ± S.E.M. (converted)
T12 construct: The full-length human NMUR1 and NMUR2 were modified; expressed in transfected cells; host or cells: AD293 cells
Protocol: as §1, §2

NMUR1 WT = target: T13, NMUR1 WT (Homo sapiens, UniProt Q9HB89); assay: IP-One assay, NMUR1 WT
T13 construct: The full-length human NMUR1 and NMUR2 were modified; expressed in transfected cells; host or cells: AD293 cells
Protocol: as §1, §2

NMUR1 H200A = target: T14, NMUR1 H200A (Homo sapiens, UniProt Q9HB89, H200A); assay: IP-One assay, NMUR1 H200A; settings: mean ± S.E.M., three independent experiments (n=3), SEM, read-out: IP1 accumulation pEC50 ± S.E.M. (converted)
T14 construct: The full-length human NMUR1 and NMUR2 were modified; expressed in transfected cells; host or cells: AD293 cells
Protocol: as §1, §2

NMUR2 F284A = target: T15, NMUR2 F284A (Homo sapiens, UniProt Q9GZQ4, F284A); assay: IP-One assay, NMUR2 F284A; settings: mean ± S.E.M., three independent experiments (n=3), SEM, read-out: IP1 accumulation pEC50 ± S.E.M. (converted)
T15 construct: expressed in transfected cells; host or cells: AD293 cells
Protocol: as §1, §2

NMUR1 H338A = target: T16, NMUR1 H338A (Homo sapiens, UniProt Q9HB89, H338A); assay: IP-One assay, NMUR1 H338A; settings: mean ± S.E.M., three independent experiments (n=3), SEM, read-out: IP1 accumulation pEC50 ± S.E.M. (converted)
T16 construct: The full-length human NMUR1 and NMUR2 were modified; expressed in transfected cells; host or cells: AD293 cells
Protocol: as §1, §2

NMUR1 W320A = target: T17, NMUR1 W320A (Homo sapiens, UniProt Q9HB89, W320A); assay: IP-One assay, NMUR1 W320A; settings: mean ± S.E.M., three independent experiments (n=3), SEM, read-out: IP1 accumulation pEC50 ± S.E.M. (converted)
T17 construct: The full-length human NMUR1 and NMUR2 were modified; expressed in transfected cells; host or cells: AD293 cells
Protocol: as §1, §2

NMUR2 D287A = target: T18, NMUR2 D287A (Homo sapiens, UniProt Q9GZQ4, D287A); assay: IP-One assay, NMUR2 D287A; settings: mean ± S.E.M., three independent experiments (n=3), SEM, read-out: IP1 accumulation pEC50 ± S.E.M. (converted)
T18 construct: expressed in transfected cells; host or cells: AD293 cells
Protocol: as §1, §2

NMUR1 E117A = target: T19, NMUR1 E117A (Homo sapiens, UniProt Q9HB89, E117A); assay: IP-One assay, NMUR1 E117A; settings: mean ± S.E.M., three independent experiments (n=3), SEM, read-out: IP1 accumulation pEC50 ± S.E.M. (converted)
T19 construct: The full-length human NMUR1 and NMUR2 were modified; expressed in transfected cells; host or cells: AD293 cells
Protocol: as §1, §2

NMUR1 Q335A = target: T20, NMUR1 Q335A (Homo sapiens, UniProt Q9HB89, Q335A); assay: IP-One assay, NMUR1 Q335A; settings: mean ± S.E.M., three independent experiments (n=3), SEM, read-out: IP1 accumulation pEC50 ± S.E.M. (converted)
T20 construct: The full-length human NMUR1 and NMUR2 were modified; expressed in transfected cells; host or cells: AD293 cells
Protocol: as §1, §2

NMUR2 F44A = target: T21, NMUR2 F44A (Homo sapiens, UniProt Q9GZQ4, F44A); assay: IP-One assay, NMUR2 F44A; settings: mean ± S.E.M., three independent experiments (n=3), SEM, read-out: IP1 accumulation pEC50 ± S.E.M. (converted)
T21 construct: The full-length human NMUR1 and NMUR2 were modified; expressed in transfected cells; host or cells: AD293 cells
Protocol: as §1, §2

NMUR2 T123A = target: T22, NMUR2 T123A (Homo sapiens, UniProt Q9GZQ4, T123A); assay: IP-One assay, NMUR2 T123A; settings: mean ± S.E.M., three independent experiments (n=3), SEM, read-out: IP1 accumulation pEC50 ± S.E.M. (converted)
T22 construct: expressed in transfected cells; host or cells: AD293 cells
Protocol: as §1, §2

NMUR1 E142A = target: T23, NMUR1 E142A (Homo sapiens, UniProt Q9HB89, E142A); assay: IP-One assay, NMUR1 E142A; settings: mean ± S.E.M., three independent experiments (n=3), SEM, read-out: IP1 accumulation pEC50 ± S.E.M. (converted)
T23 construct: The full-length human NMUR1 and NMUR2 were modified; expressed in transfected cells; host or cells: AD293 cells
Protocol: as §1, §2

NMUR2 S312A = target: T24, NMUR2 S312A (Homo sapiens, UniProt Q9GZQ4, S312A); assay: IP-One assay, NMUR2 S312A; settings: mean ± S.E.M., three independent experiments (n=3), SEM, read-out: IP1 accumulation pEC50 ± S.E.M. (converted)
T24 construct: expressed in transfected cells; host or cells: AD293 cells
Protocol: as §1, §2

T13 sequence (Q9HB89 whole entry): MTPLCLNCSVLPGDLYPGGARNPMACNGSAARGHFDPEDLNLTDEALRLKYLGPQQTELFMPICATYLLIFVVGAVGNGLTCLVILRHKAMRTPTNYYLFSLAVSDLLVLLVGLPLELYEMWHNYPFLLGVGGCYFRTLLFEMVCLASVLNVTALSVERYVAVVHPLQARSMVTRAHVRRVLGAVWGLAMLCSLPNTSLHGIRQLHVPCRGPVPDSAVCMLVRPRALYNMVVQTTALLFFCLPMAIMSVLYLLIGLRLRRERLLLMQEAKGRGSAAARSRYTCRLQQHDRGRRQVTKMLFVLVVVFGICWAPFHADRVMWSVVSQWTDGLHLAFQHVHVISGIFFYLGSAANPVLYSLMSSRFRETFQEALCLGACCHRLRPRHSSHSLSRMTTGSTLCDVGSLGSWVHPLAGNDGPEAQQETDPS
T16 sequence (Q9HB89 whole entry H338A): as the sequence (Q9HB89 whole entry) above, with H338A counted along it
T22 sequence (Q9GZQ4 whole entry T123A): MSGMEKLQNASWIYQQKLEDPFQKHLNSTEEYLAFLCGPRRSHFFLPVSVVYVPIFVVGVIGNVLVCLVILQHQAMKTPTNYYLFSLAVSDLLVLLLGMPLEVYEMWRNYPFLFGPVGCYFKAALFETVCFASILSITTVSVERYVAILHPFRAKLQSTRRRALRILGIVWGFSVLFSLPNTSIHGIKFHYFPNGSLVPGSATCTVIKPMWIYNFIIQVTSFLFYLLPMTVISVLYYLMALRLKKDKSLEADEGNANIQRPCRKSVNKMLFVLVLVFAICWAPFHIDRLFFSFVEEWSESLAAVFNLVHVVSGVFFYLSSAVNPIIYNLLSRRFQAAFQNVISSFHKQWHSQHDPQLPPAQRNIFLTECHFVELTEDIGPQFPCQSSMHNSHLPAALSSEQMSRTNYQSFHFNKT
T23 sequence (Q9HB89 whole entry E142A): as the sequence (Q9HB89 whole entry) above, with E142A counted along it
T21 sequence (Q9GZQ4 whole entry F44A): as the sequence (Q9GZQ4 whole entry T123A) above, with F44A, A123T counted along it
T8 sequence (Q9GZQ4 whole entry E102A): as the sequence (Q9GZQ4 whole entry T123A) above, with E102A, A123T counted along it
T14 sequence (Q9HB89 whole entry H200A): as the sequence (Q9HB89 whole entry) above, with H200A counted along it
T24 sequence (Q9GZQ4 whole entry S312A): as the sequence (Q9GZQ4 whole entry T123A) above, with A123T, S312A counted along it
T15 sequence (Q9GZQ4 whole entry F284A): as the sequence (Q9GZQ4 whole entry T123A) above, with A123T, F284A counted along it
T20 sequence (Q9HB89 whole entry Q335A): as the sequence (Q9HB89 whole entry) above, with Q335A counted along it
T3 sequence (Q9HB89 whole entry F334A): as the sequence (Q9HB89 whole entry) above, with F334A counted along it
T18 sequence (Q9GZQ4 whole entry D287A): as the sequence (Q9GZQ4 whole entry T123A) above, with A123T, D287A counted along it
T9 sequence (Q9GZQ4 whole entry N109A): as the sequence (Q9GZQ4 whole entry T123A) above, with N109A, A123T counted along it
T11 sequence (Q9GZQ4 whole entry F316A): as the sequence (Q9GZQ4 whole entry T123A) above, with A123T, F316A counted along it
T17 sequence (Q9HB89 whole entry W320A): as the sequence (Q9HB89 whole entry) above, with W320A counted along it
T4 sequence (Q9GZQ4 whole entry H309A): as the sequence (Q9GZQ4 whole entry T123A) above, with A123T, H309A counted along it
T7 sequence (Q9HB89 whole entry V339A): as the sequence (Q9HB89 whole entry) above, with V339A counted along it
T10 sequence (Q9GZQ4 whole entry K122A): as the sequence (Q9GZQ4 whole entry T123A) above, with K122A, A123T counted along it
T19 sequence (Q9HB89 whole entry E117A): as the sequence (Q9HB89 whole entry) above, with E117A counted along it
T5 sequence (Q9GZQ4 whole entry T205A): as the sequence (Q9GZQ4 whole entry T123A) above, with A123T, T205A counted along it
T1 sequence (Q9GZQ4 whole entry E105A): as the sequence (Q9GZQ4 whole entry T123A) above, with E105A, A123T counted along it
T12 sequence (Q9HB89 whole entry L59A): as the sequence (Q9HB89 whole entry) above, with L59A counted along it
T2 sequence (Q9GZQ4 whole entry V310A): as the sequence (Q9GZQ4 whole entry T123A) above, with A123T, V310A counted along it
T6 sequence (Q9HB89 whole entry F313A): as the sequence (Q9HB89 whole entry) above, with F313A counted along it

## FRVDEEFQSPFASQSRGYFLFRPRN-NH2 [NMU, neuromedin U]
NMUR2 E105A
  EC50: 11.7 nM
NMUR2 V310A
  EC50: 0.631 nM
NMUR1 F334A
  EC50: 85.1 nM
NMUR2 H309A
  EC50: 0.646 nM
NMUR2 T205A
  EC50: 1.95 nM
NMUR1 F313A
  EC50: 209 nM
NMUR1 V339A
  EC50: 11.5 nM
NMUR2 E102A
  EC50: 30.9 nM
NMUR2 N109A
  EC50: 7.24 nM
NMUR2 K122A
  EC50: 61.7 nM
NMUR2 F316A
  EC50: 8.71 nM
NMUR1 L59A
  EC50: 110 nM
NMUR1 WT; NMUR1 WT, mean ± S.E.M., three independent experiments (n=3), SEM, read-out: IP1 accumulation pEC50 ± S.E.M. (converted)
  EC50: 3.55 nM
NMUR1 WT; wild-type (WT) NMUR1, Supplementary Fig. 1, three independent experiments, read-out: pEC50 of NMU (converted)
  EC50: 4.47 nM
NMUR1 H200A
  EC50: 41.7 nM
NMUR2 F284A
  EC50: 7.08 nM
NMUR1 H338A
  EC50: 29.5 nM
NMUR1 W320A
  EC50: 2880 nM
NMUR2 D287A
  EC50: 1.15 nM
NMUR1 E117A
  EC50: 1070 nM
NMUR1 Q335A
  EC50: 18.2 nM
NMUR2 F44A
  EC50: 102 nM
NMUR2 T123A
  EC50: 9.77 nM
NMUR1 E142A
  EC50: 47.9 nM
NMUR2 S312A
  EC50: 2.45 nM
